Results published in ChEMBL document CHEMBL4602709 (ACS Med Chem Lett, 2020).

How the values were obtained:
[1] = target: Tyrosine-protein kinase ABL1 (Homo sapiens, UniProt P00519); assay: Inhibition of ABL1 (unknown origin) assessed as residual activity incubated for 5 mins in presence of [gamma-33ATP] by scintillation counting based radiometry assay
[2] = target: Proto-oncogene tyrosine-protein kinase Src (Homo sapiens, UniProt P12931); assay: Inhibition of SRC (unknown origin) assessed as residual activity at 10 uM incubated for 5 mins in presence of [gamma-33ATP] by scintillation counting based radiometry assay relative to control
Proto-oncogene tyrosine-protein kinase Src, sequence (P12931 2-536 limits assumed): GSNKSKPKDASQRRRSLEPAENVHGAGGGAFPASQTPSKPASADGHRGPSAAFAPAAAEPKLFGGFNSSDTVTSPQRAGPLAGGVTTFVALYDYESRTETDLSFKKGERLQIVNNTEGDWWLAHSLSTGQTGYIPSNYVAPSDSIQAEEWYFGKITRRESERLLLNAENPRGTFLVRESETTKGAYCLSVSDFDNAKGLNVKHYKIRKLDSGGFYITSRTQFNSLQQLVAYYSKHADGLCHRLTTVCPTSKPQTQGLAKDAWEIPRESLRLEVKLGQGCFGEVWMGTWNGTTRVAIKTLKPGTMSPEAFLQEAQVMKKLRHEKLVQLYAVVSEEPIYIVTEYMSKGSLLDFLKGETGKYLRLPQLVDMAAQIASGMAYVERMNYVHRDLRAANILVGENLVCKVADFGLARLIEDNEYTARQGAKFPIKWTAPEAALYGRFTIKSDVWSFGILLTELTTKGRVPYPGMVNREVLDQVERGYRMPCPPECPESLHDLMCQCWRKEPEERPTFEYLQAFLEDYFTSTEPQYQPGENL

[3] = target: Tyrosine-protein kinase Lck (Homo sapiens, UniProt P06239); assay: Inhibition of LCK (unknown origin) assessed as residual activity incubated for 5 mins in presence of [gamma-33ATP] by scintillation counting based radiometry assay
Tyrosine-protein kinase Lck, sequence (P06239 whole entry): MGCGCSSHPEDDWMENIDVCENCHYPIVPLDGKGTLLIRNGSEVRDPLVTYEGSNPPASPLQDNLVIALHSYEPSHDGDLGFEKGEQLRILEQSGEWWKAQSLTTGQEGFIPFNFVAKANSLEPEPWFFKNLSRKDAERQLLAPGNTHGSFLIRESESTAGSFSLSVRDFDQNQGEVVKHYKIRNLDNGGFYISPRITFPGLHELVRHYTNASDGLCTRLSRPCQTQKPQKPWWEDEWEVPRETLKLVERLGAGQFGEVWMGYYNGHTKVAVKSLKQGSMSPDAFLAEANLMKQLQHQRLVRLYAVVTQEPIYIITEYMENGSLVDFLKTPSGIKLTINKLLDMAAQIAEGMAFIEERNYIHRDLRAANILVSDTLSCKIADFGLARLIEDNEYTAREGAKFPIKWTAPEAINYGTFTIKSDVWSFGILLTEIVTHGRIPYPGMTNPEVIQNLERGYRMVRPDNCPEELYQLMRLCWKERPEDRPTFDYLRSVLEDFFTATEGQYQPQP

[4] = target: T1, Ephrin type-B receptor 2 (Homo sapiens) (UniProt P29323); assay: Inhibition of EPHB2 (unknown origin) assessed as residual activity at 10 uM incubated for 5 mins in presence of [gamma-33ATP] by scintillation counting based radiometry assay relative to control
T1 sequence (whole entry): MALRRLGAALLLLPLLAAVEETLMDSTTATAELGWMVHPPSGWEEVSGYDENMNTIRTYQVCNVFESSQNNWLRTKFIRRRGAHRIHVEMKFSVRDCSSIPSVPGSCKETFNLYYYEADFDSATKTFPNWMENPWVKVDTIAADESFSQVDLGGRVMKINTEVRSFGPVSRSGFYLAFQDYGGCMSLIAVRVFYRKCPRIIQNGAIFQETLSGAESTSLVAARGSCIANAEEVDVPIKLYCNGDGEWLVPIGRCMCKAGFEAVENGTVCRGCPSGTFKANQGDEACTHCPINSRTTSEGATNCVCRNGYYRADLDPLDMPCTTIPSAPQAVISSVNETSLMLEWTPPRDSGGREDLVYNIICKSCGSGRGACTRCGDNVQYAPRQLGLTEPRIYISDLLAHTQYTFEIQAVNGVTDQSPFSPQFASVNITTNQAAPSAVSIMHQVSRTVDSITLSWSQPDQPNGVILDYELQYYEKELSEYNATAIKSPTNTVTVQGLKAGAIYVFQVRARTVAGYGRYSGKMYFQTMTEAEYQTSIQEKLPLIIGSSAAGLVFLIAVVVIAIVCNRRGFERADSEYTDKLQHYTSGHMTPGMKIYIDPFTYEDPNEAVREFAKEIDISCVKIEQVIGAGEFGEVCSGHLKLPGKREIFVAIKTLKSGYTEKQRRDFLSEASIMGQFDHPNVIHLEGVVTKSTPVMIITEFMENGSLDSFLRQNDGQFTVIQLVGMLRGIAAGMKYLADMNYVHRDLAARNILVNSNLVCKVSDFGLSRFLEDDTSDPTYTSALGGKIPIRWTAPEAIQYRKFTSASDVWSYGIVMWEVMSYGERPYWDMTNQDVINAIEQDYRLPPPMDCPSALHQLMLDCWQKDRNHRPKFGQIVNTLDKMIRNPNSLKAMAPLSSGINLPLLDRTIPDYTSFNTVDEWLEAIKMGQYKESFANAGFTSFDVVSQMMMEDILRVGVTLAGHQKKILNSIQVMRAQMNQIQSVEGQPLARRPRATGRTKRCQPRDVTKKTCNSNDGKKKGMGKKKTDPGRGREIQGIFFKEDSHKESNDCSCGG

[5] = target: Platelet-derived growth factor receptor alpha (Homo sapiens, UniProt P16234); assay: Inhibition of PDGFRalpha (unknown origin) assessed as residual activity at 10 uM incubated for 5 mins in presence of [gamma-33ATP] by scintillation counting based radiometry assay relative to control
Platelet-derived growth factor receptor alpha, sequence (P16234 whole entry): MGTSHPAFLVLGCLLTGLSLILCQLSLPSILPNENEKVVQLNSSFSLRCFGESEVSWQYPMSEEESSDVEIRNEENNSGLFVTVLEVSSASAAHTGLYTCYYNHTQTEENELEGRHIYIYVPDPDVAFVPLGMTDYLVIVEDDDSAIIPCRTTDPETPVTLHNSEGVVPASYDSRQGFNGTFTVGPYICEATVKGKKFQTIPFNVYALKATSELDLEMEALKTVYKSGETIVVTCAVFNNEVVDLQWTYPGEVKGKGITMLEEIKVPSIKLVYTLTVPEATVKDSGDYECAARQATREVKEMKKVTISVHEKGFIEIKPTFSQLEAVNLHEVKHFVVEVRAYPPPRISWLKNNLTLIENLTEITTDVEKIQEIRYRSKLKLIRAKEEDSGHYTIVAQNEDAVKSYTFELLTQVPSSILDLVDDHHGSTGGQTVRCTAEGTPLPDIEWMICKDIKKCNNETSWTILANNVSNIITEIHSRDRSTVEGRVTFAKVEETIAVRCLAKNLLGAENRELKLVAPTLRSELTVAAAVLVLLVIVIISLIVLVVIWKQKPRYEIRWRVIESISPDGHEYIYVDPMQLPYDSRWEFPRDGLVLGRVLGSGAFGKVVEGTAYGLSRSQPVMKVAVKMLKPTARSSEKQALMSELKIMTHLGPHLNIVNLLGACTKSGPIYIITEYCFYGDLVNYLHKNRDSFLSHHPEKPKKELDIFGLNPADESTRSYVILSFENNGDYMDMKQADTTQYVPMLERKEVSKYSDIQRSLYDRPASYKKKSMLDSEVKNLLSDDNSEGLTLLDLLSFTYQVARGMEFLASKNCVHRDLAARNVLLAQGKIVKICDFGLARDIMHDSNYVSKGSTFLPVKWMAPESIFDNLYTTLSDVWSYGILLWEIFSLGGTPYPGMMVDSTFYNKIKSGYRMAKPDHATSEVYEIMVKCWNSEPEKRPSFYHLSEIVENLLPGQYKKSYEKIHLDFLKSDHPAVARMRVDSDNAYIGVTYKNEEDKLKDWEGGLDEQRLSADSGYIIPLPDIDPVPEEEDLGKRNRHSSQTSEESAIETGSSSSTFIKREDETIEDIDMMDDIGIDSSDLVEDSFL

[6] = target: T2, Ephrin type-B receptor 3 (Homo sapiens) (UniProt P54753); assay: Inhibition of EPHB3 (unknown origin) assessed as residual activity at 10 uM incubated for 5 mins in presence of [gamma-33ATP] by scintillation counting based radiometry assay relative to control
T2 sequence (whole entry): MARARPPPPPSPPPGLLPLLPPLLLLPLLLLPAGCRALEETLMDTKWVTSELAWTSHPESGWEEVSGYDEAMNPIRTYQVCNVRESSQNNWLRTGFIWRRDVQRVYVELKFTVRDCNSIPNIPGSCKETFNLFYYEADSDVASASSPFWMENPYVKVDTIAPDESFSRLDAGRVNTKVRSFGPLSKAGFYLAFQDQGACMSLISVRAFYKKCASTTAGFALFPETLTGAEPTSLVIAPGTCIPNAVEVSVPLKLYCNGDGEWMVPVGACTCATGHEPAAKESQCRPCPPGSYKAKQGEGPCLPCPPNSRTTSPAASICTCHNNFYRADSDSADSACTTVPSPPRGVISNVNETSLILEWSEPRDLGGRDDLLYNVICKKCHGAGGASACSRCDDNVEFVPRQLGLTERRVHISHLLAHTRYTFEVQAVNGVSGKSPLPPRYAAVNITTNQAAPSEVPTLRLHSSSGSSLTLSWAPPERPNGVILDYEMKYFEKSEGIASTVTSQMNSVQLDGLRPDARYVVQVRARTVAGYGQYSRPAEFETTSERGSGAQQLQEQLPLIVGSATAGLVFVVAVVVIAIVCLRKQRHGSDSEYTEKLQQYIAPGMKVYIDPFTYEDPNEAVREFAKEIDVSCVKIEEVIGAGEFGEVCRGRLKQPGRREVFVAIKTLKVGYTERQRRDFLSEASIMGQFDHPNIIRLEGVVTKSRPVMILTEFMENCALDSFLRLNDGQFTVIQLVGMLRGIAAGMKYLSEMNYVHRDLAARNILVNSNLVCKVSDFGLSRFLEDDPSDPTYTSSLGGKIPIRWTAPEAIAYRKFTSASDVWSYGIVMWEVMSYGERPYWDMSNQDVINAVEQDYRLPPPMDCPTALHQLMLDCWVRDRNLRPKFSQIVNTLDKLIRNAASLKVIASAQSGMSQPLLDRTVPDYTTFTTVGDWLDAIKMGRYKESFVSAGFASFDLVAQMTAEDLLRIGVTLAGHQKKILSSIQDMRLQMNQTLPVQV

[7] = target: Ephrin type-A receptor 4 (Homo sapiens) (UniProt P54764); assay: Inhibition of EPHA4 (unknown origin) assessed as residual activity at 10 uM incubated for 5 mins in presence of [gamma-33ATP] by scintillation counting based radiometry assay relative to control
Ephrin type-A receptor 4 (Homo sapiens), sequence (P54764 whole entry, looked up): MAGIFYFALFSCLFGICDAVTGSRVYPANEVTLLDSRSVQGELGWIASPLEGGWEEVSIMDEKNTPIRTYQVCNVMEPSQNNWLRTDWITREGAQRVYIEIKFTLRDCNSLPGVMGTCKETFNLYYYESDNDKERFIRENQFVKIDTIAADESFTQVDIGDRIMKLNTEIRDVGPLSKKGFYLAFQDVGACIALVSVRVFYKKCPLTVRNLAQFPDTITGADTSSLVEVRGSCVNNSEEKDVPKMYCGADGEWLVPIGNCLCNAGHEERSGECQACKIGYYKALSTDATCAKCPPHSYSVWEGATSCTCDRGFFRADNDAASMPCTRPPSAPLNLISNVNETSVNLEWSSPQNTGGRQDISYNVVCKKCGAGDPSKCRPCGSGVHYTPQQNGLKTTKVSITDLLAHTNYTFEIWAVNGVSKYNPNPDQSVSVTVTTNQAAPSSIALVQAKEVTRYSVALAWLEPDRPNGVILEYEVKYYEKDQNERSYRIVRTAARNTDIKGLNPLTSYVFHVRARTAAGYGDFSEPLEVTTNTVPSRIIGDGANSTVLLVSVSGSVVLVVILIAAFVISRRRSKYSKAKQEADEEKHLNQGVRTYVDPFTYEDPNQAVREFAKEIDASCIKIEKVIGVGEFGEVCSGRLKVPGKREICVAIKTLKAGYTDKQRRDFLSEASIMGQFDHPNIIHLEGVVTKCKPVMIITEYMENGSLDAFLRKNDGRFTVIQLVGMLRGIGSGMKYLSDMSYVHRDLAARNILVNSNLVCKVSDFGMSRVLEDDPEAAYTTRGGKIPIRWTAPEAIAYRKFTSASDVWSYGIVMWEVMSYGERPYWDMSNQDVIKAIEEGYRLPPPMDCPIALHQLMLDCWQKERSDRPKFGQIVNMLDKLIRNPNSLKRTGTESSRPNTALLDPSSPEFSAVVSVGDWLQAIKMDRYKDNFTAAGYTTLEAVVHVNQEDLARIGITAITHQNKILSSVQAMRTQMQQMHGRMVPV

[8] = target: Ephrin type-A receptor 4 (Homo sapiens) (UniProt P54764); assay: Inhibition of EPHA4 (unknown origin) assessed as residual activity incubated for 5 mins in presence of [gamma-33ATP] by scintillation counting based radiometry assay
[9] = Metabolic stability in mouse liver microsomes assessed as half life at 3 uM measured up to 30 mins in presence of NADPH by […] analysis; assay type: ADME, Microsome
[10] = target: Serine/threonine-protein kinase Nek6 (Homo sapiens, UniProt Q9HC98); assay: Inhibition of NEK6 (unknown origin) assessed as residual activity incubated for 5 mins in presence of [gamma-33ATP] by scintillation counting based radiometry assay
Serine/threonine-protein kinase Nek6, sequence (Q9HC98 whole entry): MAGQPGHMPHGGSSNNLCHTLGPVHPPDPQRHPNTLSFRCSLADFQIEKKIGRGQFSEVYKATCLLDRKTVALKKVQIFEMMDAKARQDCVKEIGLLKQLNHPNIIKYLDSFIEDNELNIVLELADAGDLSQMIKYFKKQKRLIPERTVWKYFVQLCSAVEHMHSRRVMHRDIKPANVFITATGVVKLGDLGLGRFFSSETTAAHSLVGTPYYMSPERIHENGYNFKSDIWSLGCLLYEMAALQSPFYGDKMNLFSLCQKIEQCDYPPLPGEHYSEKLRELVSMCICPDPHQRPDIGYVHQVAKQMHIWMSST

[11] = Cytotoxicity against human THLE3 assessed as reduction in cell viability incubated for 72 hrs by Cell Titer Glo 2.0 reagent based assay; conditions: THLE3 cells

Tyrosine-protein kinase ABL1, sequence (P00519 whole entry): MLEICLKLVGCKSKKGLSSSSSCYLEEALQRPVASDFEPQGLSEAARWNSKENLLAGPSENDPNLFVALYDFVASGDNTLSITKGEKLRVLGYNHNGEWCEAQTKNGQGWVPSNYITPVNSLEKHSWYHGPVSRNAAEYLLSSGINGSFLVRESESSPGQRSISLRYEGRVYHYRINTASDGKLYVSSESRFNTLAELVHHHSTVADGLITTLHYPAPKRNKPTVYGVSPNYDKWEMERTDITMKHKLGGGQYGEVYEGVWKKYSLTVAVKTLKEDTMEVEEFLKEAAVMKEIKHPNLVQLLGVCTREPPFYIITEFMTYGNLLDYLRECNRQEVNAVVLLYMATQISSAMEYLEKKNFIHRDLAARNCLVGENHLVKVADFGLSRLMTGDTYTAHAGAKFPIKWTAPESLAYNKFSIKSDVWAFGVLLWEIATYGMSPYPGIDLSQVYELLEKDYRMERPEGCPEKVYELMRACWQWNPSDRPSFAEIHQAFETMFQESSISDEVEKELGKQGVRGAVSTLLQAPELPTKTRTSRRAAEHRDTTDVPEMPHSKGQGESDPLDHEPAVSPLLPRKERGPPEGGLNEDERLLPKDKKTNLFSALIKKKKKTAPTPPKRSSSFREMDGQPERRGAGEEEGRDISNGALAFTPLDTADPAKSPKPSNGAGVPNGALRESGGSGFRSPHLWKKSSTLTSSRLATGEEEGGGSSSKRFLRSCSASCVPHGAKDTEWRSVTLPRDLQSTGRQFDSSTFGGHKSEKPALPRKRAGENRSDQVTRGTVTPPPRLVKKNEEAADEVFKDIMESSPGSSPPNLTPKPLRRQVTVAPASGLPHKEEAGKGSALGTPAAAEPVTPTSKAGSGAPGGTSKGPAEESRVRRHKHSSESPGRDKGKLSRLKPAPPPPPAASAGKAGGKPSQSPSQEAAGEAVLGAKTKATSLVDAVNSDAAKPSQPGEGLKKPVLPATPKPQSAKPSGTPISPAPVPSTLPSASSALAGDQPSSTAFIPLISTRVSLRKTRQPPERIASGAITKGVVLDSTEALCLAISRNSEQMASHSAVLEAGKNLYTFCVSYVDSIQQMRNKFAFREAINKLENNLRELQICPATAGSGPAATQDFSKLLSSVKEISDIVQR

IC50 [1]	Activity [2]	IC50 [3]	Activity [4]	Activity [5]	Activity [6]	Activity [7]	IC50 [8]	half-life at 3 µM [9]	IC50 [10]	SMILES	CC50 at 72 h [11]
0.0013 µM	15%	0.0261 µM	1%	16%	5%	2%	0.0846 µM	16.8 min	5.35 µM	Cc1ccc(C(=O)Nc2ccc(CN3Cc4cn[nH]c4C3)c(Cl)c2)cc1C#Cc1cnc2cccnn12	> 50 µM
–	74%	–	25%	56%	52%	–	–	7.89 min	–	Cc1cn(-c2cc(NC(=O)c3ccc(C)c(Nc4nccc(-c5cccnc5)n4)c3)cc(C(F)(F)F)c2)cn1 [NILOTINIB]	–
